Ten compounds from ChEMBL document CHEMBL1201862, “PubChem BioAssay data set” (2004) can be followed below.

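Following 48 hours of exposure in 96-well plates, responses at five concentrations were used to interpolate endpoints linearly. Here, GI50 denotes the concentration required for 50% inhibition of growth.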 Calls of active or inactive are those of the source. Cut-off read from the data, not from the text of the source: active = GI50 up to about 1.1 µM and inactive = higher.

Some test systems named below: SF-539; NCI-H23; OVCAR-8; RPMI-8226; EKVX; PC-3; HOP-62; Malme-3M; HT-29; A549; MCF7; SR; IGROV-1; U-251; SK-MEL-2; MDA-N; HL-60; HOP-92; SK-MEL-5; Hs-578T.
Common to all, as to assay: NCI anticancer screen, dose series, 48 h

For the compound `Cn1cncc1CC1COC(=O)C1C(O)c1ccccc1` (configuration not stated), the GI50 in the assay on SF-539, in the assay on NCI-H23, in the assay with OVCAR-8, in the assay with RPMI-8226, in the assay with EKVX and in the assay on PC-3 was > 100 µM (inactive) each time. For the same compound, the GI50 in the assay on HOP-62, in the assay on Malme-3M, with HT-29, in the assay with A549, in the assay on MCF7 and in the assay on SR was > 100 µM (inactive) throughout. The GI50 in the assay with IGROV-1, in the assay on U-251, with SK-MEL-2, in the assay on MDA-N, in the assay on HL-60 and with HOP-92 was > 100 µM (inactive) throughout. Moreover, the GI50 in the assay with SK-MEL-5 and in the assay with Hs-578T was > 100 µM (inactive) each time.

For the compound `NCC(O)CN.Oc1c(Cl)c(Cl)c(Cl)c(Cl)c1Cl`, the GI50 was 24.4 µM (inactive) in the assay on SF-539; 16.9 µM (inactive) in the assay with NCI-H23; 20.2 µM (inactive) in the assay with OVCAR-8; 22.8 µM (inactive) in the assay with RPMI-8226; 14.8 µM (inactive) in the assay with EKVX; 22 µM (inactive) in the assay on PC-3. For the same compound, the GI50 was 16.2 µM (inactive) with HOP-62; 17.5 µM (inactive) in the assay on Malme-3M; 17.8 µM (inactive) in the assay on HT-29; 18.7 µM (inactive) in the assay on A549; 32.9 µM (inactive) with MCF7; 25.5 µM (inactive) in the assay with SR. The GI50 was 13.4 µM (inactive) with IGROV-1; 18.8 µM (inactive) in the assay on U-251; 22.5 µM (inactive) in the assay with SK-MEL-2; 24.4 µM (inactive) in the assay on MDA-N; 16 µM (inactive) in the assay on HL-60; 20.7 µM (inactive) in the assay on HOP-92. Besides, the GI50 in the assay on SK-MEL-5 is 14.4 µM (inactive); in the assay with Hs-578T, 33.9 µM (inactive).

As for `CCN(CC)CCCNc1[nH]c2ccccc2c2nc3ccc(OC)cc3c1-2`, the GI50 with SF-539 was 2.16 µM (inactive); in the assay on NCI-H23, 1.57 µM (inactive); with OVCAR-8, 0.824 µM (active); with RPMI-8226 it was 0.43 µM (active); with EKVX it was 1.71 µM (inactive); in the assay with PC-3 it was 1.22 µM (inactive). For the same compound, the GI50 in the assay on HOP-62 is 1.43 µM (inactive); in the assay with Malme-3M, 1.76 µM (inactive); with HT-29 it was 0.521 µM (active); with A549, 1.43 µM (inactive); in the assay with MCF7, 1.04 µM (active); with SR it was 0.274 µM (active). Moreover, the GI50 with IGROV-1 is 1.71 µM (inactive); in the assay on U-251 it was 1.77 µM (inactive); with SK-MEL-2 it was 1.73 µM (inactive); in the assay with MDA-N, 1.56 µM (inactive); in the assay on HL-60 it was 1.21 µM (inactive); with HOP-92 it was 2.13 µM (inactive). Further, the GI50 is 1.73 µM (inactive) in the assay on SK-MEL-5 and 1.78 µM (inactive) with Hs-578T.

Regarding `COP(=O)(CC(=O)C1OC(OCc2ccccc2)C(OCc2ccccc2)C(OCc2ccccc2)C1OCc1ccccc1)OC` (configuration not stated), the GI50 in the assay on SF-539 is 12.8 µM (inactive); in the assay on NCI-H23, 8.47 µM (inactive); with OVCAR-8, 5.87 µM (inactive); in the assay on EKVX, 8.07 µM (inactive); in the assay with PC-3, 5.01 µM (inactive); in the assay on HOP-62 it was 20.1 µM (inactive). Also, the GI50 in the assay with Malme-3M is 9.1 µM (inactive); with HT-29, 6.19 µM (inactive); in the assay on A549, 5.57 µM (inactive); in the assay with MCF7 it was 4.74 µM (inactive); in the assay on SR it was 3.26 µM (inactive); in the assay with IGROV-1 it was 13.3 µM (inactive). Besides, the GI50 in the assay on U-251 was 6.37 µM (inactive); in the assay on SK-MEL-2 it was 3.22 µM (inactive); in the assay with MDA-N, 4.27 µM (inactive); in the assay on HL-60, 4.39 µM (inactive); in the assay on HOP-92 it was 10.4 µM (inactive); in the assay with SK-MEL-5, 4.23 µM (inactive). In addition, the GI50 in the assay with Hs-578T was 23.9 µM (inactive).

With `O=C(NCc1ccccc1Cl)c1c(O)c2ccccc2[nH]c1=O`, the GI50 with SF-539 is > 100 µM (inactive); with NCI-H23, > 100 µM (inactive); in the assay on OVCAR-8 it was 75 µM (inactive); in the assay with RPMI-8226 it was 57.8 µM (inactive); in the assay on EKVX it was > 100 µM (inactive); with PC-3, 64.9 µM (inactive). The GI50 with HOP-62 was 19.1 µM (inactive); in the assay with Malme-3M it was > 100 µM (inactive); in the assay with HT-29, 54.5 µM (inactive); with A549, 77.8 µM (inactive); with MCF7, > 100 µM (inactive); in the assay on SR, > 100 µM (inactive). The GI50 in the assay on IGROV-1 was 24.6 µM (inactive); in the assay with U-251 it was 18.7 µM (inactive); in the assay on MDA-N, 79.1 µM (inactive); with HL-60 it was > 100 µM (inactive); in the assay with HOP-92 it was 27.9 µM (inactive); in the assay on SK-MEL-5, 46.8 µM (inactive). For the same compound, the GI50 in the assay with Hs-578T is 25.9 µM (inactive).

Turning to `CNC(=O)[C@H](Cc1ccccc1)NC(=O)N(CCC#N)CCN(C(=O)N[C@@H](Cc1ccccc1)C(=O)OC)c1ccccc1`, the GI50 with SF-539, in the assay with NCI-H23, with OVCAR-8, with RPMI-8226, with EKVX and with PC-3 was > 100 µM (inactive) throughout. Moreover, the GI50 with HOP-62 is > 100 µM (inactive); in the assay with Malme-3M it was > 100 µM (inactive); with HT-29, > 100 µM (inactive); with A549, > 100 µM (inactive); with MCF7 it was 15.7 µM (inactive); in the assay on SR, > 100 µM (inactive). Besides, the GI50 with U-251, with SK-MEL-2, with MDA-N, in the assay on HL-60, in the assay with HOP-92 and with SK-MEL-5 was > 100 µM (inactive) in each case. Moreover, the GI50 with Hs-578T is > 100 µM (inactive).

Take `CCOC(=O)CCc1c(C(=O)OCC)[nH]c(/C=C2/NC(=O)C(C)=C2CC)c1C`: the GI50 in the assay with SF-539 was 19.5 µM (inactive); in the assay with NCI-H23, 2.24 µM (inactive); with OVCAR-8, 31.9 µM (inactive); with PC-3 it was 22.1 µM (inactive); with HOP-62, 15 µM (inactive); with Malme-3M it was 13 µM (inactive). The GI50 in the assay with HT-29 is 10.4 µM (inactive); in the assay on A549, 24.3 µM (inactive); in the assay on MCF7, 5 µM (inactive); in the assay with SR, 4.51 µM (inactive); in the assay with IGROV-1 it was 8.38 µM (inactive); with U-251, 11.2 µM (inactive). Besides, the GI50 was 18.3 µM (inactive) in the assay on SK-MEL-2; 5.83 µM (inactive) in the assay on MDA-N; 5.01 µM (inactive) in the assay with HL-60; 14.1 µM (inactive) in the assay with HOP-92; 2.97 µM (inactive) with SK-MEL-5; 25.1 µM (inactive) in the assay with Hs-578T.

In the case of `COc1ccc(OC)c(NS(=O)(=O)c2ccc3nc(C)n(NS(=O)(=O)c4cc(OC)ccc4OC)c(=O)c3c2)c1`, the GI50 was > 100 µM (inactive) in the assay with SF-539; 69.5 µM (inactive) in the assay on NCI-H23; > 100 µM (inactive) in the assay with OVCAR-8; 20.8 µM (inactive) in the assay on RPMI-8226; > 100 µM (inactive) in the assay on EKVX; 78.9 µM (inactive) in the assay on PC-3. In addition, the GI50 is > 100 µM (inactive) in the assay with HOP-62; > 100 µM (inactive) in the assay on Malme-3M; 74.8 µM (inactive) in the assay on HT-29; 87.1 µM (inactive) with MCF7; 14.8 µM (inactive) with SR; > 100 µM (inactive) in the assay on IGROV-1. Further, the GI50 was > 100 µM (inactive) with U-251; > 100 µM (inactive) with SK-MEL-2; 41.7 µM (inactive) in the assay on MDA-N; 26.2 µM (inactive) with HL-60; > 100 µM (inactive) in the assay with HOP-92; 26.4 µM (inactive) with SK-MEL-5. Besides, in the assay with Hs-578T, the GI50 is > 100 µM (inactive).

Turning to `CCOc1cc(NC(C)=O)ccc1C(=O)NN1C(=O)C(Cl)C1c1ccc(O)c(OC)c1` (configuration not stated), the GI50 is 11.4 µM (inactive) with SF-539; 11.7 µM (inactive) in the assay with NCI-H23; 24.4 µM (inactive) in the assay on OVCAR-8; 17.3 µM (inactive) in the assay with RPMI-8226; 16.1 µM (inactive) in the assay on EKVX; 14.1 µM (inactive) in the assay with PC-3. The GI50 with HOP-62 is 16.1 µM (inactive); in the assay with Malme-3M it was 8 µM (inactive); with HT-29 it was 16.3 µM (inactive); with A549, 16.7 µM (inactive); in the assay with MCF7, 13.8 µM (inactive); in the assay on SR, 4.52 µM (inactive). In addition, the GI50 was 12.8 µM (inactive) in the assay on IGROV-1; 14.8 µM (inactive) in the assay with SK-MEL-2; 14.2 µM (inactive) in the assay on MDA-N; 15.7 µM (inactive) in the assay with HL-60; 16.4 µM (inactive) with HOP-92; 10.4 µM (inactive) with SK-MEL-5. The GI50 in the assay with Hs-578T was 16.7 µM (inactive).

On to `Cc1ccc2c(c1)CC1(Cc3c(C)cccc3C1=O)C2=O` (configuration not stated), for which the GI50 with SF-539, in the assay with NCI-H23, in the assay on OVCAR-8, with RPMI-8226, in the assay with EKVX and with PC-3 was > 100 µM (inactive) throughout. Also, the GI50 in the assay with HOP-62 is 28.5 µM (inactive); in the assay on Malme-3M, > 100 µM (inactive); with HT-29 it was > 100 µM (inactive); in the assay with A549, > 100 µM (inactive); with MCF7, > 100 µM (inactive); in the assay on SR, > 100 µM (inactive). For the same compound, the GI50 was > 100 µM (inactive) with IGROV-1; 87.5 µM (inactive) in the assay with U-251; > 100 µM (inactive) in the assay with MDA-N; > 100 µM (inactive) in the assay with HL-60; 40.2 µM (inactive) in the assay with HOP-92; > 100 µM (inactive) in the assay with SK-MEL-5. In addition, the GI50 in the assay with Hs-578T is 22.6 µM (inactive).
